Test results from PubChem BioAssay (NCI).
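Each compound was tested at five concentrations against cells in 96-well plates for 48 hours. Abbreviation: GI50, concentration required for 50% inhibition of growth. At the TGI there is no net growth.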

What was measured:
Test in all cases: growth of human tumour cells (NCI), 48 h
[1] = test system: DU-145 prostate
[2] = test system: HCT-116 colon
[3] = test system: MDA-MB-231 breast
[4] = test system: HOP-92 NSCLC
[5] = test system: SR leukemia
[6] = test system: SK-MEL-5 melanoma
[7] = test system: U251 CNS
[8] = test system: PC-3 prostate
[9] = test system: SK-MEL-28 melanoma
[10] = test system: LOX IMVI melanoma
[11] = test system: NCI-H460 lung
[12] = test system: HS 578T breast
[13] = test system: COLO 205 colon
[14] = test system: M14 melanoma
[15] = test system: OVCAR-3 ovarian
[16] = test system: SNB-19 CNS
[17] = test system: KM12 colon
[18] = test system: SN12C renal
[19] = test system: EKVX NSCLC
[20] = test system: HCC-2998 colon
[21] = test system: MOLT-4 leukemia
[22] = test system: OVCAR-8 ovarian
[23] = test system: NCI-H226 lung
[24] = test system: NCI-H23 lung
[25] = test system: TK-10 renal
[26] = test system: HOP-62 NSCLC
[27] = test system: CAKI-1 renal
[28] = test system: IGROV1 ovarian
[29] = test system: K-562 leukemia
[30] = test system: ACHN renal
[31] = test system: UO-31 renal
[32] = test system: SF-295 CNS
[33] = test system: MCF7 breast
[34] = test system: OVCAR-4 ovarian
[35] = test system: SF-268 CNS
[36] = test system: MDA-MB-435
[37] = test system: SW-620 colon
[38] = test system: NCI/ADR-RES ovarian
[39] = test system: SK-MEL-2 melanoma
[40] = test system: 786-0 renal
[41] = test system: CCRF-CEM leukemia
[42] = test system: A549 NSCLC
[43] = test system: NCI-H522 lung
[44] = test system: HT29 colon
[45] = test system: RPMI-8226 leukemia
[46] = test system: SK-OV-3 ovarian
[47] = test system: HCT-15 colon
[48] = test system: UACC-62 melanoma
[49] = test system: OVCAR-5 ovarian
[50] = test system: MALME-3M melanoma
[51] = test system: T-47D breast
[52] = test system: UACC-257 melanoma
[53] = test system: SNB-75 CNS
[54] = test system: RXF 393 renal
[55] = test system: A498 renal
[56] = test system: HL-60(TB) leukemia
[57] = test system: SF-539 CNS

`O=C1c2ccccc2-c2c1c1c(O)cccc1n2-c1ccccc1` showed a GI50 [1] of over 100 µM, a TGI [1] of over 100 µM and a GI50 [2] of over 100 µM. For the same compound, the TGI [2] was over 100 µM, the GI50 [3] was over 100 µM and the TGI [3] was over 100 µM. The TGI [4] was 0.035 µM, the GI50 [5] was over 100 µM and the TGI [5] was over 100 µM. It also gave a GI50 [6] of over 100 µM, a TGI [6] of over 100 µM and a GI50 [7] of over 100 µM. It also gave a TGI [7] of over 100 µM, a GI50 [8] of over 100 µM and a TGI [8] of over 100 µM. It also gave a GI50 [9] of 18.5 µM, a TGI [9] of over 100 µM and a GI50 [10] of over 100 µM. The TGI [10] was over 100 µM, the GI50 [11] was over 100 µM and the TGI [11] was over 100 µM. The GI50 [12] was over 100 µM, the TGI [12] was over 100 µM and the GI50 [13] was over 100 µM. The TGI [13] was over 100 µM, the GI50 [14] was 29.3 µM and the TGI [14] was over 100 µM. The GI50 [15] was over 100 µM, the TGI [15] was over 100 µM and the GI50 [16] was over 100 µM. It also gave a TGI [16] of over 100 µM, a GI50 [17] of over 100 µM and a TGI [17] of over 100 µM. It also gave a GI50 [18] of over 100 µM, a TGI [18] of over 100 µM and a GI50 [19] of over 100 µM. It also gave a TGI [19] of over 100 µM, a GI50 [20] of over 100 µM and a TGI [20] of over 100 µM. It also gave a GI50 [21] of over 100 µM, a TGI [21] of over 100 µM and a GI50 [22] of over 100 µM. The TGI [22] was over 100 µM, the GI50 [23] was over 100 µM and the TGI [23] was over 100 µM. It also gave a GI50 [24] of over 100 µM, a TGI [24] of over 100 µM and a GI50 [25] of over 100 µM. It also gave a TGI [25] of over 100 µM, a GI50 [26] of 66.3 µM and a TGI [26] of over 100 µM. The GI50 [27] was over 100 µM, the TGI [27] was over 100 µM and the GI50 [28] was over 100 µM. The TGI [28] was over 100 µM, the GI50 [29] was over 100 µM and the TGI [29] was over 100 µM. The GI50 [30] was over 100 µM, the TGI [30] was over 100 µM and the GI50 [31] was over 100 µM. The TGI [31] was over 100 µM, the GI50 [32] was over 100 µM and the TGI [32] was over 100 µM. The GI50 [33] was over 100 µM, the TGI [33] was over 100 µM and the TGI [34] was over 100 µM. The GI50 [35] was over 100 µM, the TGI [35] was over 100 µM and the GI50 [36] was over 100 µM. For the same compound, the TGI [36] was over 100 µM, the GI50 [37] was over 100 µM and the TGI [37] was over 100 µM. It also gave a GI50 [38] of over 100 µM, a TGI [38] of over 100 µM and a GI50 [39] of over 100 µM. It also gave a TGI [39] of over 100 µM, a GI50 [40] of 62.2 µM and a TGI [40] of over 100 µM. For the same compound, the GI50 [41] was 45.3 µM, the TGI [41] was over 100 µM and the GI50 [42] was over 100 µM. For the same compound, the TGI [42] was over 100 µM, the GI50 [43] was over 100 µM and the TGI [43] was over 100 µM. It also gave a GI50 [44] of over 100 µM, a TGI [44] of over 100 µM and a GI50 [45] of 0.0318 µM. The TGI [45] was 93.8 µM, the GI50 [46] was over 100 µM and the TGI [46] was over 100 µM. It also gave a GI50 [47] of over 100 µM, a TGI [47] of over 100 µM and a GI50 [48] of over 100 µM. It also gave a TGI [48] of over 100 µM, a GI50 [49] of over 100 µM and a TGI [49] of over 100 µM. The GI50 [50] was over 100 µM, the TGI [50] was over 100 µM and the GI50 [51] was over 100 µM. The TGI [51] was over 100 µM, the GI50 [52] was over 100 µM and the TGI [52] was over 100 µM.

Work on `CC(C)(C)c1ccc(/C=N/NC(=O)CSCC(=O)N/N=C/c2ccc(C(C)(C)C)cc2)cc1` yielded a TGI [1] of over 100 µM, a TGI [3] of 2.43 µM and a TGI [4] of 38.9 µM. It also gave a TGI [5] of 3.76 µM, a TGI [6] of 4.3 µM and a TGI [7] of 5.87 µM. It also gave a TGI [8] of 18.2 µM, a TGI [9] of 20.6 µM and a TGI [11] of 15 µM. For the same compound, the TGI [12] was 7.61 µM, the TGI [13] was 3.7 µM and the TGI [14] was 3.89 µM. The TGI [53] was 20.1 µM, the TGI [16] was 17.2 µM and the TGI [17] was 6.18 µM. The TGI [54] was 4.29 µM, the TGI [18] was 4.82 µM and the TGI [19] was 19.8 µM. It also gave a TGI [20] of 4.8 µM, a TGI [21] of 5.02 µM and a TGI [22] of 6.49 µM. It also gave a TGI [23] of 4.93 µM, a TGI [24] of 6.01 µM and a TGI [25] of 16.6 µM. The TGI [26] was 5.84 µM, the TGI [28] was 10.4 µM and the TGI [29] was 6.7 µM. It also gave a TGI [30] of 13.5 µM, a TGI [31] of 15.7 µM and a TGI [33] of 6.05 µM. The TGI [34] was over 100 µM, the TGI [35] was 10.9 µM and the TGI [37] was 6.11 µM. It also gave a TGI [38] of 15.5 µM, a TGI [39] of 5.72 µM and a TGI [40] of 4.4 µM. It also gave a TGI [55] of 8.67 µM, a TGI [42] of 11.6 µM and a TGI [56] of 5.21 µM. The TGI [43] was 21.9 µM, the TGI [44] was 3.87 µM and the TGI [45] was over 100 µM. It also gave a TGI [46] of 19.4 µM, a TGI [47] of 15.8 µM and a TGI [48] of 32 µM. It also gave a TGI [49] of 12.5 µM, a TGI [50] of 24.8 µM and a TGI [51] of 26.3 µM. It also gave a TGI [52] of 15.2 µM.

Work on `O=C1C(=Cc2cccc(O)c2)N=C(c2ccccc2)N1n1c(-c2ccccc2)nc2ccccc2c1=O` yielded a TGI [1] of 74.5 µM, a TGI [2] of 43.2 µM and a TGI [3] of over 100 µM. For the same compound, the TGI [4] was 66 µM, the TGI [5] was 60.5 µM and the TGI [6] was 48 µM. The TGI [7] was over 100 µM, the TGI [8] was 58.7 µM and the TGI [9] was over 100 µM. For the same compound, the TGI [10] was 52.5 µM, the TGI [11] was 59.8 µM and the TGI [12] was 76.8 µM. For the same compound, the TGI [13] was 79.7 µM, the TGI [14] was over 100 µM and the TGI [15] was 70.1 µM. The TGI [16] was 72.7 µM, the TGI [17] was 56.4 µM and the TGI [54] was 83.8 µM. For the same compound, the TGI [18] was over 100 µM, the TGI [19] was over 100 µM and the TGI [21] was 44.2 µM. It also gave a TGI [22] of 98.5 µM, a TGI [23] of 18.9 µM and a TGI [24] of 88.5 µM. For the same compound, the TGI [25] was over 100 µM, the TGI [27] was 85.8 µM and the TGI [28] was 61.1 µM. For the same compound, the TGI [29] was over 100 µM, the TGI [30] was 58 µM and the TGI [31] was 61.1 µM. The TGI [32] was 65.6 µM, the TGI [34] was over 100 µM and the TGI [35] was 87.5 µM. For the same compound, the TGI [36] was over 100 µM, the TGI [37] was over 100 µM and the TGI [38] was over 100 µM. It also gave a TGI [40] of over 100 µM, a TGI [41] of 75.5 µM and a TGI [55] of 72.4 µM. For the same compound, the TGI [42] was over 100 µM, the TGI [56] was 54 µM and the TGI [43] was 56 µM. For the same compound, the TGI [44] was 85 µM, the TGI [45] was 50.2 µM and the TGI [46] was over 100 µM. The TGI [47] was over 100 µM, the TGI [48] was 50.9 µM and the TGI [49] was 78.3 µM. For the same compound, the TGI [50] was 92.3 µM, the TGI [57] was 51.3 µM and the TGI [51] was 91.7 µM. It also gave a TGI [52] of 81.9 µM.

With `COc1cc(/C=C/C(=O)c2ccc(NC(=O)CSc3nnc(-c4cc(OC)c(OC)c(OC)c4)n3-c3ccccc3)cc2)cc(OC)c1OC` the GI50 [3] was 4.09 µM, the TGI [3] was over 100 µM and the GI50 [4] was 2.06 µM. For the same compound, the TGI [4] was 9.67 µM, the GI50 [5] was 0.316 µM and the TGI [5] was over 100 µM. For the same compound, the GI50 [7] was 0.527 µM, the TGI [7] was over 100 µM and the GI50 [12] was 20.4 µM. The TGI [12] was over 100 µM, the GI50 [53] was 0.429 µM and the TGI [53] was 14.2 µM. It also gave a GI50 [16] of 2.18 µM, a TGI [16] of over 100 µM and a GI50 [25] of 9.3 µM. The TGI [25] was over 100 µM, the GI50 [26] was 1.84 µM and the TGI [26] was 7.06 µM. It also gave a GI50 [34] of 1.8 µM, a TGI [34] of over 100 µM and a GI50 [40] of 1.05 µM. The TGI [40] was 4.63 µM.
